Measurements taken from patent US20190358343A1, “ADOPTIVE TRANSFER OF CAR T CELLS WITH SURFACE-CONJUGATED DRUG-LOADED NANOPARTICLES AND USES THEREOF” (University of Southern California, priority 2017, published 2019).
Read-outs that look alike come from different tables or passages of the source.

Tests used:
adenosine receptor A2A = adenosine receptor A2A (Homo sapiens, UniProt P29274); conditions: cited from earlier work
PBMCs = assay: In vitro XTT assay; format: cell-based, human
Source text: (§1) Based on the procedure of nanoparticle-cell surface conjugation developed in Stephen et al (2010), we pioneered the utilization of CAR engineered human PBMCs as therapeutic cells that have nanoparticles conjugated to the surface. The nanoparticles encapsulate small molecule inhibitors of the A2a receptor, e.g., SCH 58261, which is highly hydrophobic and is generally unsuitable for systemic infusion. […] Therefore, SCH 58261 is a suitable drug to illustrate the advantage of this T cell-nanoparticle cargo system for the purposes of enhancing CAR T cell therapy by co-delivering therapeutic cells and adjuvant in the same unit. Compare with other compositions or systems to block the A2aR pathway, such as genetically engineering CAR-T cells with the CRISPR/Cas system or receptor siRNA knock down, a major advantage of presently disclosed composition and method is the ability of the drug to affect endogenous T cells and circulating CAR-T cells, as well as the carrier CAR-T cells themselves.

[1] = tested on: tumor cells (SKOV3-CD19+); assay: In vitro XTT assay; format: cell-based, human
Source text: as §1

[2] = cited from earlier work

adenosine receptor A2A, sequence (P29274 whole entry, species assumed): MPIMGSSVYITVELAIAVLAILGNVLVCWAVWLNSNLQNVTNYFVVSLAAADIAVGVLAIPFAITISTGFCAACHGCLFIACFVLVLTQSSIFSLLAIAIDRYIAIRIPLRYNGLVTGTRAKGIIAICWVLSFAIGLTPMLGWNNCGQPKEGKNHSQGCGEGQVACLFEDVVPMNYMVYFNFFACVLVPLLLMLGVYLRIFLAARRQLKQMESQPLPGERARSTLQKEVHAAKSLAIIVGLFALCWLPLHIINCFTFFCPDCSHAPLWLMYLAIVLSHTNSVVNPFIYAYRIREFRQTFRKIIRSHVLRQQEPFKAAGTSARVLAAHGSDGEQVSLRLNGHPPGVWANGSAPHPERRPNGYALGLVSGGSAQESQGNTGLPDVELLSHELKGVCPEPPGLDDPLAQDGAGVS

## Nc1nc2c(cnn2CCc2ccccc2)c2nc(-c3ccco3)nn12 [SCH-58261]
Adenosine receptor A2A
  selectivity for A2A over other adenosine receptors: more than 50 times
PBMCs
  cytotoxic effects: does not have cytotoxic effects
[1]
  cytotoxic effects: does not have cytotoxic effects
[1]; listed as SCH
  cytotoxic effects: not directly affected
[2]
  solubility: poor solubility
